Several values for one entry are separate records, joined by “and”; a condition that tells them apart may be missing. Equal entries are not always repeated. Where two headings read alike, the source gives them in different places.
Key:
[1] = Quantification of compounds in mice plasma by LC-MS-MS and PK parameters after i.v. injection; assay type: in vivo; details: for Plasma Conc. @Tinitial: mice, Tinitial 0.5 h (A, C), 0.13 h (B), 1.5 h (D)
Experimental: (§1) Three Balb/C mice (6–8 weeks old) were intravenously injected with 25 mg/kg of strasseriolide D dissolved in 200 µL of vehicle (0.5%HPMC, 0.5% Tween 80 and 0.5% Benzyl alcohol in water). Blood samples were collected by pricking the […] on the leg of each mouse at time points 1.5 (T 1.5 h), 5 (T 5 h) and 24 h (T 24 h). From the harvested blood, 50 µL plasma were prepared for all the samples and stored at -80 °C until needed. A previously developed LC–MS–MS method (see supporting information) was used to determine the plasma concentration of strasseriolide D as described below.
Ten millimolar (10 mM) DMSO stocks of strasseriolide D (the test compound) and strasseriolide A (used as internal standard,) were prepared. From the strasseriolide D stock, a 59.7 µM (27,000 ppb) working concentration was made in DMSO and an aliquot of this was serially diluted (½) in reconstitution solution (1:1 of acetonitrile: H2O with 0.1% formic acid) to create a six-point calibration curve in triplicate. Three different quality control (QC) concentrations of strasseriolide D at 59.7, 0.74, and 0.25 µM (i.e. 27,000 ppb, 333 ppb and 111 ppb) were also prepared in duplicate. From the strasseriolide A (internal standard) stock, a 6.2 µM (2700 ppb) working concentration was prepared in DMSO.
Blank mouse plasma (prepared from non-injected mouse) was retrieved from the freezer (− 80 °C) and kept on ice to thaw. The sample was vortexed adequately and 15 µL aliquots transferred into 0.7 mL Eppendorf tubes after which 35 µL of Milli-Q water were added and vortexed. Triplicate sets of the diluted plasma were then respectively spiked with 2 uL of each concentration of the calibration curves of strasseriolide D. Another triplicate set of the diluted plasma was spiked with 2 µL of each concentration of the standard QC solutions. All the above samples were also spiked with 2 µL of strasseriolide A (the internal standard)). To serve as blank samples, a fresh triplicate set of diluted plasma were spiked with 4 µL of DMSO. Non-matrix samples were also prepared by spiking 100 µL aliquots of reconstitution solution with 2 µL of the standard QC solutions and 2 µL of internal standard.
Fifteen microlitres (15 µL) plasma from the various time points of the strasseriolide D-injected mice, were respectively transferred into 0.7 mL Eppendorf tubes. To each sample, 37 µL of Milli-Q water were added, vortexed and spiked with 2 µL of strasseriolide A (internal standard). Two hundred microlitres (200 µL) of ice-cold acetonitrile were added to all of the matrix (plasma-containing) samples and centrifuged at 13,300 rpm for 15 min at 4 °C. Subsequently, 180 µL aliquots were carefully transferred (without disturbing the protein precipitate) from each tube into clean HPLC vials and evaporated to dryness in an EZ2 Genevac at room temperature. The dried samples were then reconstituted in 40 µL of reconstitution solution by vortexing. The samples were placed in an auto-sampler drawer for LC–MS–MS analysis and quantification of strasseriolide D (the test compound) in mice plasma.
(§2) Similar sample preparation and LC–MS–MS analysis were respectively performed for mice intravenously injected with strasseriolides A and C as test compounds and mice blood samples collected at 30 min (T 30 M), 2 h (T 2 h), 6 h (T 6 h) and 24 h (T 24 h). […] For strasseriolides A, B and C as test compounds; strasseriolides C, D and B were respectively used as internal standards. After LC–MS–MS analysis, the plasma concentration of compound vs. time data was determined for each strasseriolide.
116 Table S2. QC table used to calculate the precision and accuracy of the method.
Compound Expected No. Experimental STD % %
conc. in values mean conc. deviation CV Accuracy
118 (5) The mean recovery rate for the test compound (strasseriolide B) – this was calculated
119 to be 29 % by comparing the plasma QC peak area ratios at the established retention time […]

HepG2 liver cells = tested on: HepG2 liver cells; design: method as in PMID 32808790; details: cited from earlier work
[2] = tested on: Plasmodium falciparum strain 3D7 whole parasites; design: method as in PMID 32808790; details: in vitro, read-out: IC50 against Plasmodium falciparum strain 3D7; cited from earlier work
mice = assay: In vivo toxicity in mice after i.v. injection
Experimental: as §1, §2
Animals were observed individually at 15, 30 and 60 min after dosing and periodically during the first 24 h for any clinical signs of toxicity or mortality. The toxicity evaluation was carried out by observing behaviour parameters, including the Grimace scale parameters. The mice were sacrificed, and the main organs were examined by visual inspection during autopsy.

[3] = Metabolic stability assay in human liver microsomes; assay type: in vitro ADME; details: for half-life: pH 7.4, 1 mg/mL protein; for Clearance Category: ranked by CLint
Experimental: Pretreatment of the 96-well ABgen-0765 reaction plates was the same as previously described above. Two microlitres (2 µL) of compounds (previously dissolved in DMSO) were pre-incubated with 98 µL of cofactor/buffer solution (0.1 M phosphate buffer of pH 7.4, 100 mM K3PO4, 3.3 mM MgCl2, 3.3 mM G6P, 1.3 mM NADPH, and 0.4 u/mL G6PDH) at 37 °C for 10 min. The reactions were then initiated by the addition of 100 µL of HLM solution (at final protein concentration of 1 mg/mL), after which they were stopped at pre-determined incubation times of 0, 10, 15, 30, 45 and 60 min by adding 90 µL acetonitrile containing internal LC–MS–MS standards and shaking at 180 Hz. The samples were centrifuged to sediment the protein precipitates and the supernatants were analysed by LC–MS–MS as previously described above. The integration of each analyte (the […]) and internal standard peak area was performed by the Analyst® software version 1.5.2 and used to calculate the percentage of remaining compound at each incubation time. The natural logarithm of the percentage of the remaining parent compound was plotted against the incubation time and used to calculate the half-life by the following equation:
Half-life (T ½ min) = 0.693/k, where k is the slope of a plot of the natural log of the percentage parent compound remaining vs. time.
The intrinsic clearance (CLint) was determined by the equation: CLint
=Ln2/t1/2min∗volumeincubationmL/microsomalproteinmg∗45MPPGL1500ghumanliver/70kghumanbodyweightj
Units for CLint were expressed as mL/min/mg microsomal protein and MPPGL = mg microsomal protein per gram liver.

[4] = tested on: transgenic P. berghei line 676m1cl1 (PbGFP-Luccon), ANKA strain; assay: In vivo efficacy in P. berghei infected mice (luciferase activity); design: species or system Plasmodium berghei in Swiss Webster female mice; details: chloroquine 20 mg/kg; for Parasitaemia (Luminescence arbitrary units), Average ± SD: 4 days from 48 h post-infection
Experimental: In vivo efficacy experiments were performed at the Anti-infectives Screening Core Services facility of the New York University School of Medicine. The transgenic P. berghei line 676m1cl1 parasite (PbGFP-Luccon) expressing the fusion GFP (mutant 3) and firefly luciferase (LucIAV) proteins generated in the reference clone of ANKA strain cl15cy1 was used. Swiss Webster female mice were infected with transgenic P. berghei line 676m1cl1 (PbGFP-Luccon) ANKA-infected 10³ red blood cells. Treatment was then started 48 h post-parasite infection by i.p. dosage of 22 mg/kg of strasseriolide D and 50 mg/kg of strasseriolide C. Vehicle only (PBS 2% methylcellulose, 0.5% Tween 80) and 20 mg/kg chloroquine were used as negative and positive controls. The infected mice were treated for four days, after which luciferase activity of the parasites was quantified 5 to 10 min after i.p. injection of 150 mg/kg D-Luciferin Potassium-salt (Goldbio) dissolved in PBS using an IVIS® Lumina II imager on the fifth day.
The Genedata Screener online application (Genedata AG, Basel, Switzerland) was used to compute IC50 values. The Smart Fit strategy with Hill model was selected as the choice for curve fitting. Where applicable, data are presented as mean ± standard deviation (SD). In Fig. 3, the significant differences between the vehicle controls and test compounds were calculated by the Student’s t test.

[5] = Balb/C, mouse, in vivo, iv, 25 mg/kg
[6] = Balb/C, mouse, in vivo, iv, 25 mg/kg, 24 h
[7] = Balb/C, mouse, in vivo, iv, 25 mg/kg, Ave. Conc. in plasma

C/C1=C\[C@H](C)CC[C@@H](O)/C(C)=C/[C@H](C)C[C@@H](C)CC[C@@H]([C@@H](C)C(=O)O)OC(=O)[C@@H](C)C1 [Strasseriolide B, strasseriolide B]
concentration at 8 min ([1]; Balb/C, mouse, in vivo, iv, 25 mg/kg, i.v. 25 mg/kg, T 8 minutes, read-out: Ave. Conc. in plasma): 19.6 µM
concentration at 8 min ([1]; Balb/C, mouse, in vivo, iv, 25 mg/kg, i.v. 25 mg/kg, T 8 minutes, read-out: Calc. Conc. in plasma, individual mice): 8110 ng/mL and 18.6 µM
Calc. Conc. in plasma, individual mice ([1]; i.v. 25 mg/kg, T 8 minutes): 9098.0 ng/mL
Calc. Conc. in plasma, individual mice ([1]; i.v. 25 mg/kg, T 8 minutes, listed as strasseriolide B): 8419.0 ng/mL
concentration at 8 min ([1]; i.v. 25 mg/kg, T 8 minutes, listed as strasseriolide B, read-out: Calc. Conc. in plasma, individual mice): 19.3 µM
concentration at 8 min ([1]; i.v. 25 mg/kg, T 8 minutes, read-out: Calc. Conc. in plasma, individual mice): 20.9 µM
Plasma Conc. @Tinitial ([1]; i.v. 25 mg/kg): 19.6 µM
Plasma Conc. @Tinitial ([1]; i.v. 25 mg/kg, listed as B*): 19.6 ± 1.2 µM
in vitro toxicity against HepG2 liver cells (HepG2 liver cells): no in vitro toxicity
IC50 [2]: 0.013 µM
time to death of all injected mice (mice; i.v. 25 mg/kg): *Only Tinitial and the Plasma Conc @ Tinitial were recorded as all the mice injected with this compound died under 8 min
in vivo toxicity / mortality in mice (mice; i.v. 25 mg/kg, three mice, observed 24 h): all died just under eight minutes post-i.v. injection
in vivo toxicity / mortality in mice at lower dosages (mice; i.v. 10, 5 and 1 mg/Kg): all resulted in death of the mice injected
half-life [3]: 8.7 ± 2.4 min
Clearance Category [3]: High

CCN(CC)CCCC(C)Nc1ccnc2cc(Cl)ccc12 (stereo not drawn) [Chloroquine, chloroquine, reference compound]
Parasitaemia (Luminescence arbitrary units), Average ± SD ([4]; Table S7/Fig. 3A experiment: strasseriolide C 50 mg/kg i.p., read day 5, four replicates): 0.00 Luminescence arbitrary units
Parasitaemia (Luminescence arbitrary units), single replicates ([4]; Table S7 experiment: strasseriolide C 50 mg/kg i.p., individual mice): 0.00 Luminescence arbitrary units
Parasitaemia (Luminescence arbitrary units), Average ± SD ([4]; Table S8/Fig. 3B experiment: strasseriolide D 22 mg/kg i.p., read day 5, five replicates): 3 × 10^3 Luminescence arbitrary units

C/C1=C\[C@H](C)CCC(=O)/C(C)=C/[C@H](C)C[C@@H](C)CC[C@@H]([C@@H](C)C(=O)O)OC(=O)[C@@H](C)C1 [Strasseriolide A, strasseriolide A]
AUC 0-t/0-inf_obs [1, 5]: 0.9738
AUC(0-inf) [1, 5]: 510 ng·h/mL and 1.17 µM·h
C0 [1, 5]: 378 ng/mL and 870 nM
Clast_obs/Cmax [1, 5]: 0.009713
Cmax [1, 5]: 216 ng/mL and 498 nM
MRT [1, 5]: 2.98 h
MRT inf [1, 5]: 2.99 h
Tmax [1, 5]: 0.5 h
Vss_obs [1, 5]: 0.1465 (mg/kg)/(ng/ml)
Vz_obs (plasma distribution volume) [1, 5]: 312.4 L/kg
k el [1, 5]: 4.36e-05 s⁻¹
Calc. Conc. in plasma, individual mice [1, 6]: < 2.1 ng/mL
Plasma Conc. @T24 h [1, 6]: <0.0048 µM
concentration at 8 min ([1]; Balb/C, mouse, in vivo, iv, 25 mg/kg, 24 h, read-out: Calc. Conc. in plasma, individual mice): < 0.00484 µM
AUC(0-t) ([1]; Balb/C, mouse, in vivo, iv, 25 mg/kg, AUC 0-t): 1.14 µM·h and 496 ng·h/mL
AUC(0-t) ([1]; Balb/C, mouse, in vivo, iv, 25 mg/kg, AUC0−t): 1140 nM·h
concentration at 0.5 h [1, 7]: 0.498 µM
concentration at 2 h [1, 7]: 0.0935 µM
concentration at 6 h [1, 7]: 0.0116 µM
concentration at 24 h [1, 7]: < 0.00484 µM
concentration at 24 h ([1]; Balb/C, mouse, in vivo, iv, 25 mg/kg, Calc. Conc. in plasma, individual mice): < 2.1 ng/mL and < 4.84 nM
concentration at 24 h ([1]; Balb/C, mouse, in vivo, iv, 25 mg/kg, Plasma Conc. @T24 h): < 0.0048 µM
half-life ([1]; Balb/C, mouse, in vivo, iv, 25 mg/kg, T1/2 (apparent terminal elimination half-life)): 4.4 h
half-life ([1]; Balb/C, mouse, in vivo, iv, 25 mg/kg, t1/2): 4.41 h
Cl_obs ([1]; mouse, in vivo, iv, 25 mg/kg): 0.04907 (mg/kg)/(ng/ml)/h
IC50 [2]: 9.81 µM
in vivo toxicity / mortality in mice (mice; [6]): survived until 24 h post-i.v. injection
in vivo toxicity / mortality in mice (mice; mouse, in vivo, iv, 25 mg/kg): non-toxic
half-life [3]: 6.47 ± 1.05 min
Clearance Category [3]: High

Source: paper PMC8647499, “Preclinical evaluation of strasseriolides A–D, potent antiplasmodial macrolides isolated from Strasseria geniculata CF-247,251” (Malaria Journal, 2021)
